Entries after “also recorded” stand apart in the source; their conditions may differ. Where a SMILES comes first, the peptide text is derived from it. [ ]: non-standard residue; d: D form. N(2-ethylhexyl)Gly = CCCCC(CC)CNCC(=O)O; Gly(N-dodecyl) = CCCCCCCCCCCCNCC(=O)O; N(CH(CH2OH)2)Gly = O=C(O)CNC(CO)CO; NHexGly = CCCCCCNCC(=O)O
Assays:
[1] = tested on: BALB/c mice; assay: In vivo fLuc mRNA expression after IV dose, whole body and organ bioluminescence; details: for fLuc (luciferase) expression in vivo: BALB/c mice, IV, luminescence 6 hours after dose, lipid block screen; for luciferase expression in vivo, comparison of monomer order isomers: Compound 31 versus Compound 41
Source text: In one particular instance, peptoids disclosed herein were formulated into delivery vehicles by first dissolving in ethanol along with DSPC, cholesterol, and DMG-PEG2000 at weight ratio of 20:1.8:7.2:1.8 (Formulation D22 in Table 3, above), then mixed with firefly luciferase (fLuc) mRNA dissolved in an aqueous buffer at a volume ratio of 1:3 via microfluidic nanoprecipitation on a turbulent mixing device, resulting in small, low dispersity particles. Physical particle properties were characterized. Delivery vehicles with initial sizes larger than 120 nm were not brought forward into in vivo screening as liver fenestrae primarily accommodate LNPs sized under 100 nm. In vivo expression of delivery vehicles comprising peptoids with varied headgroups was evaluated using fLuc expression in BALB/c mice 6 hours after IV dose (FIG. 1). […] The aminoethyl and aminopropyl headgroups both show preferential expression in lung (FIG. 2), potentially due to the high basicity of the pendant primary amine, as groups with higher pKas are known to accumulate in that organ. […] While spleen and lung selectivity merit further optimization for future therapeutic applications, liver-selective targets were used for further studies herein to prepare for systemic delivery of antibody targets and maximize their serum expression with anti-RSV cargo.
Intravenous administration. The delivery vehicle complexes disclosed herein are effective for in vivo administration of Fluc mRNA to BALB/c mice through multiple routes of administration. In general, delivery system complexes were administered at a dose of 0.5 mg/kg via a tail-vein injection, and the resulting bioluminescence was quantified after 6 hours. Organ-specific bioluminescence was quantified by sacrificing the treated animal, dissecting out the organs of interest, and separately quantifying the resulting bioluminescence
In one particular instance, to investigate how the peptoid lipid block impacts in vivo expression, delivery vehicles with diameter larger than 120 nm were excluded and remaining candidates were administered IV to BALB/c mice. Luminescence was measured after 6 hours and the resulting expression in liver, lung and spleen were quantified. Even without changing the cationic headgroup, luciferase expression spanned 4 orders of magnitude as a result of altering the lipid block in this series. […] In vivo expression of all candidates was then fit to a multi-parameter model containing the 4 input parameters to understand the individual contributions of each factor to overall performance. […] Contour plots of the impact of these factors on expression (all using Ehx as the branched/unsaturated monomer) are shown in FIG. 4.
For imaging studies, female BALB/c mice (6-8 weeks old) were obtained and acclimatized for a minimum of 3 days prior to experiments. The animals were maintained on a 12 hour light cycle in a temperature and humidity controlled room. A daily health check was performed as well as food and water check. For dosing, mice were injected with 2.5 μg fLuc mRNA-containing delivery vehicles intravenously in 100 μL total injection volume. At 6 hours post-injection, mice were anesthetized with isoflurane, and injected intraperitoneally with 30 mg/mL D-luciferin at a dose of 10 μL per gram bodyweight intraperitoneally. Imaging was done 10 minutes post D-luciferin injection using an IVIS® Spectrum Imaging System. Immediately after in vivo imaging, mice were terminally bled by cardiac puncture and euthanized. The organs of interest were harvested, placed in black 24-well plates, and imaged. Living Image® software was used to quantify the total photon flux in regions of interest. For secreted protein studies, mice were injected with aRSV mRNA-containing delivery vehicles intravenously in 100 μL total injection volume. Mice were euthanized after 24 hours, with serum collection at 6 and 24 hours post-injection. […]

[2] = Zeta potential of delivery vehicles; type: physicochemical; details: Table 5; delivery vehicle, pH 7 buffer; in mV (unit assumed)

SMILES: CCCCCCN(CC(N)=O)C(=O)CN(CC(CC)CCCC)C(=O)CN(CC(CC)CCCC)C(=O)CN(CCCCCC)C(=O)CN(CC(CC)CCCC)C(=O)CN(CC(CC)CCCC)C(=O)CNC(CO)CO (stereo not drawn) [Compound 12] (H-[N(CH(CH2OH)2)Gly][N(2-ethylhexyl)Gly][N(2-ethylhexyl)Gly][NHexGly][N(2-ethylhexyl)Gly][N(2-ethylhexyl)Gly][NHexGly]-NH2)
- fLuc (luciferase) expression in vivo [1]: top expressers; also recorded: highest overall fLuc expression
- Zeta Potential [2]: −8.68

SMILES: CCCCCCCCCCCCN(CC(=O)N(CC(=O)N(CC(=O)N(CCCCCCCCCCCC)CC(=O)N(CC(=O)N(CC(N)=O)CC(CC)CCCC)CC(CC)CCCC)CC(CC)CCCC)CC(CC)CCCC)C(=O)CNC(CO)CO (stereo not drawn) [Compound 31] (H-[N(CH(CH2OH)2)Gly][Gly(N-dodecyl)][N(2-ethylhexyl)Gly][N(2-ethylhexyl)Gly][Gly(N-dodecyl)][N(2-ethylhexyl)Gly][N(2-ethylhexyl)Gly]-NH2)
- luciferase expression in vivo, comparison of monomer order isomers [1]: within error
- Zeta Potential [2]: −11.2

SMILES: CCCCCCCCCCCCN(CC(=O)N(CC(N)=O)CC(CC)CCCC)C(=O)CN(CCCCCC)C(=O)CN(CC(CC)CCCC)C(=O)CN(CCCCCCCCCCCC)C(=O)CN(CCCCCC)C(=O)CNC(CO)CO (stereo not drawn) [Compound 34] (H-[N(CH(CH2OH)2)Gly][NHexGly][Gly(N-dodecyl)][N(2-ethylhexyl)Gly][NHexGly][Gly(N-dodecyl)][N(2-ethylhexyl)Gly]-NH2)
- fLuc (luciferase) expression in vivo [1]: top expressers
- Zeta Potential [2]: −9.58

SMILES: CCCCCCCCCCCCN(CC(=O)N(CC(=O)N(CC(=O)N(CCCCCCCCCCCC)CC(=O)N(CC(N)=O)CC(CC)CCCC)CC(CC)CCCC)CC(CC)CCCC)C(=O)CN(CC(CC)CCCC)C(=O)CNC(CO)CO (stereo not drawn) [Compound 41] (H-[N(CH(CH2OH)2)Gly][N(2-ethylhexyl)Gly][Gly(N-dodecyl)][N(2-ethylhexyl)Gly][N(2-ethylhexyl)Gly][Gly(N-dodecyl)][N(2-ethylhexyl)Gly]-NH2)
- fLuc (luciferase) expression in vivo [1]: top expressers
- luciferase expression in vivo, comparison of monomer order isomers [1]: within error
- Zeta Potential [2]: −5.38

Source: patent publication US20260083769A1, “2-Aminopropane-1,3-Diol-Capped Cationic Peptoids for Nucleic Acid Delivery” (NUTCRACKER THERAPEUTICS, INC., priority 2022, published 2026)
